As usually defined, the MIC is the smallest concentration in the dilution series that meets the test's criterion for growth inhibition.

In US9968089B2, “Microbicidal composition” (Dow Global Technologies LLC, priority 2013, dated 2018) one finds MIC data, which are given here for three compounds.

Common to all, as to assay: MIC and synergy index test in 96 well microtiter plates
What all share (assay type): cell-based

Assay [1] concerns Pseudomonas aeruginosa ATCC #15442. The note with it: 1/10 TSB. Here is the method: Surfactants and biocides were evaluated for synergy by determining the synergy index (S.I.) of the combination. Synergy index was calculated based on minimum inhibitory concentrations (MIC) of two antimicrobial compounds (A and B) alone and in combinations. The tests organisms were Gram negative bacteria (Pseudomonas aeruginosa ATCC #15442), Gram positive bacteria (Staphylococcus aureus ATCC #6538), yeast (Candida albicans ATCC#10203) and mold (Aspergillus niger ATCC#16404). […] The test was carried out in 96 well microtiter plates. • Surf. A R^1O(CH2CH(CH3)O)5(CH2CH2O)9H, where R^1 is 2-ethylhexyl • Surf. D R^2O(CH2CH(CH3)O)3(CH2CH2O)5H • Surf. E R^2O(CH2CH(CH3)O)3(CH2CH2O)7H • In Surf. D and Surf. E, R^2 is a mixture of C8-C14 linear alkyl groups (70% C8-C10 linear alkyl and 30% C12-C14 linear alkyl)
(§1) The pH of the Triptic soy broth was 7.3 and the Potato dextrose broth was 5.1.
(§2) SI is calculated as follows: Ca/CA+Cb/CB=Synergy Index(“SI”)
(§3) Wherein: • CA=concentration of compound A in ppm, acting alone, which produced an end point (MIC of Compound A). • Ca=concentration of compound A in ppm, in the mixture, which produced an end point. • CB=concentration of compound B in ppm, acting alone, which produced an end point (MIC of Compound B). • Cb=concentration of compound B in ppm, in the mixture, which produced an end point.
(§4) When the sum of Ca/CA and Cb/CB is greater than one, antagonism is indicated.

The test system of assay [2] is Candida albicans ATCC#10203. The settings on record: PDB. Here is the method:
(§5) Surfactants and biocides were evaluated for synergy by determining the synergy index (S.I.) of the combination. Synergy index was calculated based on minimum inhibitory concentrations (MIC) of two antimicrobial compounds (A and B) alone and in combinations. The tests organisms were Gram negative bacteria (Pseudomonas aeruginosa ATCC #15442), Gram positive bacteria (Staphylococcus aureus ATCC #6538), yeast (Candida albicans ATCC#10203) and mold (Aspergillus niger ATCC#16404). Contact time for the bacteria was 24 and 48 hours, yeast was 48 and 72 hrs, and 3 and 7 days for mold. The test was carried out in 96 well microtiter plates. • Surf. A R^1O(CH2CH(CH3)O)5(CH2CH2O)9H, where R^1 is 2-ethylhexyl • Surf. D R^2O(CH2CH(CH3)O)3(CH2CH2O)5H • Surf. E R^2O(CH2CH(CH3)O)3(CH2CH2O)7H • In Surf. D and Surf. E, R^2 is a mixture of C8-C14 linear alkyl groups (70% C8-C10 linear alkyl and 30% C12-C14 linear alkyl)
as §1, §2, §3, §4

Assay [3] deals with Staphylococcus aureus ATCC #6538. The note with it: ATCC6538, 24 h. Here is the method:
as §5, §1, §2, §3, §4

Assay [4] deals with Aspergillus niger ATCC#16404. The note with it: PDB. Here is the method:
as §5, §1, §2, §3, §4

Where two headings read alike, the source gives them in different places.

`CC1(C)COCN1` [DMO, 4,4-dimethyloxazolidine]: the MIC in assay [1] (ATCC15442, 24 h, A: Surf. A, B: DMO, P. aeruginosa ATCC#15442, 24 hrs, inoculum 8.134+07 CFU/ml, read-out: CB (MIC of compound B acting alone)) came to 80 mg/L; in assay [2] (ATCC10203, 48 h, A: Surf. E, B: DMO, C. albicans ATCC#10203, 48 hrs, inoculum 1808E+06, read-out: CB (MIC of compound B acting alone)), 1000 mg/L; in assay [2] (ATCC 10203 / ATCC 10231, 48 h, A: Surf. D, B: DMO, C. albicans ATCC#10231, 48 hrs, inoculum 5.726E+05 CFU/ml, read-out: CB (MIC of compound B acting alone)), 1000 mg/L; in assay [2] (ATCC 10203 / ATCC 10231, A: Surf. A, B: DMO, C. albicans ATCC#10231, 3rd Day, inoculum 1.156E+06 CFU/ml, read-out: CB (MIC of compound B acting alone)) it was 1000 mg/L; in assay [3] (A: Surf. D, B: 1135, S. aureus ATCC#6538, 24 hrs, 1/10 TSB, inoculum 1.16E+08, read-out: CB (MIC of compound B acting alone)), 80 mg/L; in assay [3] (A: Surf. E, B: DMO, ATCC# 6538, 24 hrs, 1/10 TSB, inoculum 1.80E+06 CFU/ml, read-out: CB (MIC of compound B acting alone)) it was 80 mg/L. In addition, the MIC was found to be 50 mg/L in assay [3] (read-out: CB (MIC of compound B acting alone)); 60 mg/L in assay [4] (ATCC16404, A: Surf. A, B: DMO, A. niger ATCC#16404, 3rd Day, inoculum 1.156E+06 CFU/ml, read-out: CB (MIC of compound B acting alone)); 400 mg/L in assay [4] (ATCC16404, A: Surf. D, B: DMO, A. niger ATCC# 16404, 3rd day, inoculum 1.156E+06, read-out: CB (MIC of compound B acting alone)); 800 mg/L in assay [4] (ATCC16404, A: Surf. E, B: DMO, A. niger ATCC#16404, 3rd Day, inoculum 1.56E+06 CFU/ml, read-out: CB (MIC of compound B acting alone)).
Regarding `Cl/C=C\C[N+]12CN3CN(CN(C3)C1)C2.[Cl-]` [CTAC, cis-1-(3-chloroallyl)-3,5,7-triaza-1-azoniaadamantane chloride], the MIC in assay [1] (ATCC15442, 72 h, A: Surf. A, B: CTAC, P. aeruginosa ATCC#15442, 3rd Day, inoculum 1.156E+06, read-out: CB (MIC of compound B acting alone)) turned out to be 600 mg/L; in assay [2] (ATCC10203, 48 h, A: Surf. D, B: CTAC, C. albicans ATCC#10203, 48 hrs, inoculum 5.726E+05 CFU/ml, read-out: CB (MIC of compound B acting alone)), 1000 mg/L; in assay [2] (ATCC10203, 48 h, A: Surf. E, B: CTAC, C. albicans ATCC 10203, 48 hrs, inoculum 1.808E+05, read-out: CB (MIC of compound B acting alone)), 3000 mg/L; in assay [3] (A: Surf. D, B: CTAC, S. aureus ATCC# 6538, 24 hrs, 1/10 TSB, inoculum 1.808E+05, read-out: CB (MIC of compound B acting alone)), 300 mg/L; in assay [3] (A: Surf. E, B: CTAC, S. aureus ATCC# 6538, 24 hrs, 1/10 TSB, inoculum 1.8E+06, read-out: CB (MIC of compound B acting alone)), 200 mg/L; in assay [4] (ATCC16404, A: Surf. D, B: CTAC, A. niger ATCC#16404, 3rd day, inoculum 1.156E+06, read-out: CB (MIC of compound B acting alone)), 1000 mg/L.
On to `O=[N+]([O-])C(CO)(CO)CO` [Tris Nitro, tris(hydroxymethyl)nitromethane], for which the MIC was found to be 800 mg/L in assay [1] (ATCC15442, 24 h, A: Surf. D, B: TrisNitro, Ps. aeruginosa ATCC#15442, 24 hrs, inoculum 1.16E+08, read-out: CB (MIC of compound B acting alone)); 1000 mg/L in assay [1] (ATCC15442, 24 h, A: Surf. E, B: TrisNitro, Ps. aeruginosa ATCC#15442, 24 hrs, inoculum 5.727E+07 CFU/ml, read-out: CB (MIC of compound B acting alone)); 500 mg/L in assay [3] (A: Surf. E, B: TrisNitro, S. aureus ATCC# 6538, 24 hrs, 1/10 TSB, inoculum 1.808E+06 CFU/ml, read-out: CB (MIC of compound B acting alone)).
